Experiments:
Test in all cases: relative viability (nuclei count vs DMSO), 5 days (fraction); higher = more cells survive
NCI-H1437 = tested on: NCI-H1437
Summary of the method: (§1)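 Relative viability equals treated-well nuclei counts divided by vehicle-well nuclei counts. Counts came from 4× images of lung cancer cell lines grown in 1536-well plates for 5 days after pin-tool dosing on the day after seeding. Dosing used one drug alone or a fixed anchor-drug dose plus five library-drug doses (not always all listed) in √10 steps, and values are medians of duplicate plates.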

NCI-H2087 = tested on: NCI-H2087
Summary of the method: as §1

NCI-H650 = tested on: NCI-H650
Summary of the method: as §1

PC-3 [JPC-3] = tested on: PC-3 [JPC-3]
Summary of the method: as §1

LOU-NH91 = tested on: LOU-NH91
Summary of the method: as §1

H3255 = tested on: H3255
Summary of the method: as §1

201T = tested on: 201T
Summary of the method: as §1

NCI-H647 = tested on: NCI-H647
Summary of the method: as §1

LCLC-97TM1 = tested on: LCLC-97TM1
Summary of the method: as §1

BEN = tested on: BEN
Summary of the method: as §1

NCI-H1975 = tested on: NCI-H1975
Summary of the method: as §1

EPLC-272H = tested on: EPLC-272H
Summary of the method: as §1

SW 1573 = tested on: SW 1573
Summary of the method: as §1

NCI-H2085 = tested on: NCI-H2085
Summary of the method: as §1

EKVX = tested on: EKVX
Summary of the method: as §1

NCI-H2342 = tested on: NCI-H2342
Summary of the method: as §1

COR-L 105 = tested on: COR-L 105
Summary of the method: as §1

NCI-H1666 = tested on: NCI-H1666
Summary of the method: as §1

NCI-H2170 = tested on: NCI-H2170
Summary of the method: as §1

LU99A = tested on: LU99A
Summary of the method: as §1

HCC-827 = tested on: HCC-827
Summary of the method: as §1

Which relative viability (NCI-H1437; first compound 0.08 µM) does the source give for `COc1nc(C)cnc1NS(=O)(=O)c1cccnc1-c1ccc(-c2nnco2)cc1` [Zibotentan] + COc1cc2c(Oc3ccc(NC(=O)C4(C(=O)Nc5ccc(F)cc5)CC4)cc3F)ccnc2cc1OCCCN1CCOCC1 [Foretinib] (partner 0.25 µM) here?
Its relative viability is 1.27.

And the relative viability (NCI-H1437; first compound 0.253 µM)?
The relative viability was 1.18.

What about the relative viability (NCI-H1437; first compound 0.8 µM) of the same compound?
Its relative viability is 1.26.

What about the relative viability (NCI-H1437; first compound 2.53 µM) of the same compound?
The relative viability was 1.26.

What about the relative viability (NCI-H2087; first compound 0.08 µM) of the same compound?
The relative viability was 1.22.

And the relative viability (NCI-H2087; first compound 0.253 µM)?
Its relative viability is 1.04.

What about the relative viability (NCI-H2087; first compound 0.8 µM) of the same compound?
Its relative viability is 1.16.

And the relative viability (NCI-H2087; first compound 2.53 µM)?
The relative viability was 1.04.

What about the relative viability (NCI-H650; first compound 0.08 µM) of the same compound?
The relative viability was 1.1.

And the relative viability (NCI-H650; first compound 0.253 µM)?
Its relative viability is 0.877.

What about the relative viability (NCI-H650; first compound 0.8 µM) of the same compound?
Its relative viability is 1.07.

And the relative viability (NCI-H650; first compound 2.53 µM)?
Its relative viability is 0.994.

What about the relative viability (PC-3 [JPC-3]; first compound 0.08 µM) of the same compound?
Its relative viability is 1.05.

What about the relative viability (PC-3 [JPC-3]; first compound 0.253 µM) of the same compound?
The relative viability was 1.05.

And the relative viability (PC-3 [JPC-3]; first compound 0.8 µM)?
Its relative viability is 1.03.

And the relative viability (PC-3 [JPC-3]; first compound 2.53 µM)?
Its relative viability is 0.973.

What about the relative viability (LOU-NH91; first compound 0.08 µM) of the same compound?
The relative viability was 0.903.

And the relative viability (LOU-NH91; first compound 0.253 µM)?
Its relative viability is 0.841.

What about the relative viability (LOU-NH91; first compound 0.8 µM) of the same compound?
Its relative viability is 0.969.

What about the relative viability (LOU-NH91; first compound 2.53 µM) of the same compound?
The relative viability was 0.888.

And the relative viability (H3255; first compound 0.08 µM)?
Its relative viability is 0.966.

What about the relative viability (H3255; first compound 0.253 µM) of the same compound?
Its relative viability is 0.802.

What about the relative viability (H3255; first compound 0.8 µM) of the same compound?
The relative viability was 0.945.

What about the relative viability (H3255; first compound 2.53 µM) of the same compound?
Its relative viability is 0.987.

And the relative viability (201T; first compound 0.08 µM)?
Its relative viability is 1.16.

What about the relative viability (201T; first compound 0.253 µM) of the same compound?
The relative viability was 0.956.

And the relative viability (201T; first compound 0.8 µM)?
Its relative viability is 1.04.

And the relative viability (201T; first compound 2.53 µM)?
The relative viability was 1.15.

And the relative viability (NCI-H647; first compound 0.08 µM)?
Its relative viability is 1.13.

What about the relative viability (NCI-H647; first compound 0.253 µM) of the same compound?
The relative viability was 0.996.

What about the relative viability (NCI-H647; first compound 0.8 µM) of the same compound?
Its relative viability is 1.06.

And the relative viability (NCI-H647; first compound 2.53 µM)?
The relative viability was 1.29.

What about the relative viability (LCLC-97TM1; first compound 0.08 µM) of the same compound?
The relative viability was 1.01.

And the relative viability (LCLC-97TM1; first compound 0.253 µM)?
The relative viability was 0.891.

And the relative viability (LCLC-97TM1; first compound 0.8 µM)?
Its relative viability is 1.

What about the relative viability (LCLC-97TM1; first compound 2.53 µM) of the same compound?
The relative viability was 0.926.

What about the relative viability (BEN; first compound 0.08 µM) of the same compound?
The relative viability was 0.739.

And the relative viability (BEN; first compound 0.253 µM)?
The relative viability was 0.475.

And the relative viability (BEN; first compound 0.8 µM)?
The relative viability was 0.819.

What about the relative viability (BEN; first compound 2.53 µM) of the same compound?
Its relative viability is 0.639.

What about the relative viability (NCI-H1975; first compound 0.08 µM) of the same compound?
Its relative viability is 0.98.

And the relative viability (NCI-H1975; first compound 0.253 µM)?
The relative viability was 0.849.

What about the relative viability (NCI-H1975; first compound 0.8 µM) of the same compound?
The relative viability was 0.824.

And the relative viability (NCI-H1975; first compound 2.53 µM)?
Its relative viability is 0.856.

And the relative viability (EPLC-272H; first compound 0.08 µM)?
The relative viability was 0.696.

What about the relative viability (EPLC-272H; first compound 0.253 µM) of the same compound?
The relative viability was 0.641.

And the relative viability (EPLC-272H; first compound 0.8 µM)?
The relative viability was 0.901.

And the relative viability (EPLC-272H; first compound 2.53 µM)?
Its relative viability is 0.787.

What about the relative viability (SW 1573; first compound 0.08 µM) of the same compound?
Its relative viability is 0.966.

And the relative viability (SW 1573; first compound 0.253 µM)?
The relative viability was 0.692.

What about the relative viability (SW 1573; first compound 0.8 µM) of the same compound?
The relative viability was 0.983.

And the relative viability (SW 1573; first compound 2.53 µM)?
The relative viability was 0.82.

And the relative viability (NCI-H2085; first compound 0.08 µM)?
Its relative viability is 0.97.

What about the relative viability (NCI-H2085; first compound 0.253 µM) of the same compound?
The relative viability was 1.05.

And the relative viability (NCI-H2085; first compound 0.8 µM)?
The relative viability was 0.928.

What about the relative viability (NCI-H2085; first compound 2.53 µM) of the same compound?
The relative viability was 1.18.

And the relative viability (EKVX; first compound 0.08 µM)?
Its relative viability is 0.892.

What about the relative viability (EKVX; first compound 0.253 µM) of the same compound?
Its relative viability is 0.762.

What about the relative viability (EKVX; first compound 0.8 µM) of the same compound?
The relative viability was 1.11.

What about the relative viability (EKVX; first compound 2.53 µM) of the same compound?
Its relative viability is 0.875.

What about the relative viability (NCI-H2342; first compound 0.08 µM) of the same compound?
Its relative viability is 1.08.

And the relative viability (NCI-H2342; first compound 0.253 µM)?
The relative viability was 0.954.

And the relative viability (NCI-H2342; first compound 0.8 µM)?
The relative viability was 1.03.

What about the relative viability (NCI-H2342; first compound 2.53 µM) of the same compound?
Its relative viability is 1.13.

What about the relative viability (COR-L 105; first compound 0.08 µM) of the same compound?
The relative viability was 1.31.

What about the relative viability (COR-L 105; first compound 0.253 µM) of the same compound?
The relative viability was 0.996.

What about the relative viability (COR-L 105; first compound 0.8 µM) of the same compound?
Its relative viability is 1.1.

And the relative viability (COR-L 105; first compound 2.53 µM)?
The relative viability was 1.03.

And the relative viability (NCI-H1666; first compound 0.08 µM)?
The relative viability was 0.902.

And the relative viability (NCI-H1666; first compound 0.253 µM)?
Its relative viability is 0.918.

What about the relative viability (NCI-H1666; first compound 0.8 µM) of the same compound?
Its relative viability is 0.938.

And the relative viability (NCI-H1666; first compound 2.53 µM)?
The relative viability was 0.972.

What about the relative viability (NCI-H2170; first compound 0.08 µM) of the same compound?
Its relative viability is 1.05.

What about the relative viability (NCI-H2170; first compound 0.253 µM) of the same compound?
The relative viability was 1.07.

And the relative viability (NCI-H2170; first compound 0.8 µM)?
Its relative viability is 1.03.

What about the relative viability (NCI-H2170; first compound 2.53 µM) of the same compound?
The relative viability was 0.969.

What about the relative viability (LU99A; first compound 0.08 µM) of the same compound?
The relative viability was 0.953.

And the relative viability (LU99A; first compound 0.253 µM)?
Its relative viability is 0.8.

And the relative viability (LU99A; first compound 0.8 µM)?
Its relative viability is 0.888.

And the relative viability (LU99A; first compound 2.53 µM)?
Its relative viability is 0.918.

And the relative viability (HCC-827; first compound 0.08 µM)?
The relative viability was 1.06.

And the relative viability (HCC-827; first compound 0.253 µM)?
Its relative viability is 1.01.

What about the relative viability (HCC-827; first compound 0.8 µM) of the same compound?
The relative viability was 1.11.

And the relative viability (HCC-827; first compound 2.53 µM)?
The relative viability was 1.09.

Reference: the supplement of paper PMC10307832
